Source: patent US8658697B2 (priority 2004, dated 2014)

system: Tacaribe virus (TRVL 11573); test: microbe, parasite or virus in culture; type: cell-based; settings: Mammarenavirus tacaribeense, Vero, read-out: Tacaribe EC50

First: CC(NC(=O)Nc1ccc(Br)cc1)(C(F)(F)F)C(F)(F)F [Example 81, 1-(4-Bromophenyl)-3-(2,2,2-trifluoro-1-methyl-1-trifluoromethylethyl)-urea]
Second: CC(NC(=O)Nc1ccc(S(N)(=O)=O)cc1)(C(F)(F)F)C(F)(F)F [Example 87, 4-[3-(1,1-Bis-trifluoromethylethyl)-ureido]benzenesulfonamide]
The EC50 of the first is lower: 1000 to 5000 nM for the first, over 5000 nM for the second. The first is the more potent here.

`CC(NC(=O)Nc1ccc(C(=O)O)cc1OC(F)(F)F)(C(F)(F)F)C(F)(F)F` [Example 74, 3-Trifluormethoxy-4-[3-(1,1-bis-trifluoromethylethyl)-ureido]benzoic acid] and `CC(NC(=O)Nc1cccc(C(F)(F)F)c1)(C(F)(F)F)C(F)(F)F` [Example 65, 1-(3-Trifluoromethylphenyl)-3-(2,2,2-trifluoro-1-methyl-1-trifluoromethylethyl)-urea] fall in the same range of EC50: 1000 to 5000 nM for the first, 1000 to 5000 nM for the second.

First: CC(NC(=O)NNS(=O)(=O)c1ccc(Cl)c(F)c1)(C(F)(F)F)C(F)(F)F [Example 14, N-2-(1,1,1,3,3,3-Hexafluoro-2-methylpropyl)-2-[(3-fluoro-4-chloro-phenyl)sulfonyl]hydrazine-1-carboxamide]
Second: CC(NC(=O)NNS(=O)(=O)c1ccc(F)c(F)c1)(C(F)(F)F)C(F)(F)F [Example 37, N-2-(1,1,1,3,3,3-Hexafluoro-2-methylpropyl)-2-[(3,4-difluorophenyl)sulfonyl]hydrazine-1-carboxamide]
The EC50 of the first is lower: 500 to 1000 nM for the first, 1000 to 5000 nM for the second.

First: CC(NC(=O)NNS(=O)(=O)c1cccc(C#N)c1)(C(F)(F)F)C(F)(F)F [Example 32, N-2-(1,1,1,3,3,3-Hexafluoro-2-methylpropyl)-2-[(3-cyanophenyl)sulfonyl]hydrazine-1-carboxamide]
Second: Cc1cccc(S(=O)(=O)NNC(=O)NC(C)(C(F)(F)F)C(F)(F)F)c1 [Example 22, N-2-(1,1,1,3,3,3-Hexafluoro-2-methylpropyl)-2-[(3-methylphenyl)sulfonyl]hydrazine-1-carboxamide]
The EC50 of the first is higher: 1000 to 5000 nM for the first, 500 to 1000 nM for the second. The second is the more potent here.

First: CC(NC(=O)NNS(=O)(=O)c1ccc(C#N)cc1)(C(F)(F)F)C(F)(F)F [Example 33, N-2-(1,1,1,3,3,3-Hexafluoro-2-methylpropyl)-2-[(4-cyanophenyl)sulfonyl]hydrazine-1-carboxamide]
Second: Cc1ccc(S(=O)(=O)NNC(=O)NC(C)(C(F)(F)F)C(F)(F)F)cc1 [Example 11, N-2-(1,1,1,3,3,3-Hexafluoro-2-methylpropyl)-2-[(4-methylphenyl)sulfonyl]hydrazine-1-carboxamide]
The EC50 of the first is higher: 1000 to 5000 nM for the first, under 500 nM for the second. The second is the more potent here.

Compared with `COc1ccc(S(=O)(=O)NNC(=O)NC(C)(C(F)(F)F)C(F)(F)F)c(OC)c1` [Example 20, N-2-(1,1,1,3,3,3-Hexafluoro-2-methylpropyl)-2-[(2,4-dimethoxyphenyl)sulfonyl] hydrazine-1-carboxamide], `CC(NC(=O)NNS(=O)(=O)c1cc(F)ccc1F)(C(F)(F)F)C(F)(F)F` [Example 42, N-2-(1,1,1,3,3,3-Hexafluoro-2-methylpropyl)-2-[(2,5-difluorophenyl)sulfonyl]hydrazine-1-carboxamide] is higher in EC50: 500 to 1000 nM for the first, 1000 to 5000 nM for the second.

Compared with `CC(NC(=O)Nc1ccccc1C(N)=O)(C(F)(F)F)C(F)(F)F` [Example 63, 2-[3-(1,1-Bis-trifluoromethylethyl)-ureido]benzamide], `CC(=O)c1ccccc1NC(=O)NC(C)(C(F)(F)F)C(F)(F)F` [Example 53, 1-(2-Acetylphenyl)-3-(2,2,2-trifluoro-1-methyl-1-trifluoromethylethyl)-urea] is lower in EC50: 1000 to 5000 nM for the first, 500 to 1000 nM for the second. The second is the more potent here.

`CC(NC(=O)NNS(=O)(=O)c1c(F)cccc1F)(C(F)(F)F)C(F)(F)F` [Example 40, N-2-(1,1,1,3,3,3-Hexafluoro-2-methylpropyl)-2-[(2,6-difluorophenyl)sulfonyl]hydrazine-1-carboxamide] and `CC(NC(=O)NNS(=O)(=O)c1ccccc1F)(C(F)(F)F)C(F)(F)F` [Example 41, N-2-(1,1,1,3,3,3-Hexafluoro-2-methylpropyl)-2-[(2-fluorophenyl)sulfonyl]hydrazine-1-carboxamide] fall in the same range of EC50: 1000 to 5000 nM for the first, 1000 to 5000 nM for the second.

Compared with `CN(C)c1cccc2c(S(=O)(=O)NNC(=O)NC(C)(C(F)(F)F)C(F)(F)F)cccc12` [Example 4, N-2-(1,1,1,3,3,3-Hexafluoro-2-methylpropyl)-2-[5-(1-dimethylamino-naphthyl)sulfonyl]hydrazine-1-carboxamide], `Cc1ccccc1S(=O)(=O)NNC(=O)NC(C)(C(F)(F)F)C(F)(F)F` [Example 18, N-2-(1,1,1,3,3,3-Hexafluoro-2-methylpropyl)-2-[(2-methoxyphenyl)sulfonyl]hydrazine-1-carboxamide] is higher in EC50: under 500 nM for the first, 500 to 1000 nM for the second.

`CN1CCN(C(=O)NC(C)(C(F)(F)F)C(F)(F)F)CC1` [Example 57, 4-Methylpiperazine-1-(2,2,2 trifluoro-1-methyl-1-trifluoromethylethyl)-carboxamide] and `CC1CCN(C(=O)NC(C)(C(F)(F)F)C(F)(F)F)CC1` [Example 70, 4-Methyl-1-piperidine-1-(2,2,2-trifluoro-1-methyl-1-trifluoromethylethyl)-carboxamide] fall in the same range of EC50: 1000 to 5000 nM for the first, 1000 to 5000 nM for the second.

First: CC(NC(=O)N1CCC(c2ccccc2)CC1)(C(F)(F)F)C(F)(F)F [Example 60, 4-Phenylpiperidin-1-yl-1-(2,2,2-trifluoro-1-methyl-1-trifluoromethylethyl)-carboxamide]
Second: CC(NC(=O)N1CCOCC1)(C(F)(F)F)C(F)(F)F [Example 52, 4-Morpholino-1-(2,2,2-trifluoro-1-methyl-1-trifluoromethylethyl)-carboxamide]
The EC50 of the first is higher: 1000 to 5000 nM for the first, under 500 nM for the second.

`COc1cccc(OC)c1NC(=O)NC(C)(C(F)(F)F)C(F)(F)F` [Example 73, l-(2,6-Dimethoxyphenyl)-3-(2,2,2-trifluoro-1-methyl-1-trifluoromethylethyl)-urea] and `COc1cccc(NC(=O)NC(C)(C(F)(F)F)C(F)(F)F)c1` [Example 77, 1-(3-Methoxyphenyl)-3-(2,2,2-trifluoro-1-methyl-1-trifluoromethylethyl)-urea] fall in the same range of EC50: 1000 to 5000 nM for the first, 1000 to 5000 nM for the second.

First: Cc1ccc(S(=O)(=O)NN(C)C(=O)NC(C)(C(F)(F)F)C(F)(F)F)cc1 [Example 35]
Second: CC(C)(C)c1ccc(S(=O)(=O)NNC(=O)NC(C)(C(F)(F)F)C(F)(F)F)cc1 [Example 2]
The EC50 of the first is higher: 1000 to 5000 nM for the first, under 500 nM for the second. The second is the more potent here.

`Cc1nc(C)c(S(=O)(=O)NNC(=O)NC(C)(C(F)(F)F)C(F)(F)F)s1` [Example 38, N-2-(1,1,1,3,3,3-Hexafluoro-2-methylpropyl)-2-[(2,4-dimethylthiazol-5-yl)sulfonyl]hydrazine-1-carboxamide] and `CC(NC(=O)NNS(=O)(=O)c1ccccc1Cl)(C(F)(F)F)C(F)(F)F` [Example 26, N-2-(1,1,1,3,3,3-Hexafluoro-2-methylpropyl)-2-[(2-chlorophenyl)sulfonyl]hydrazine-1-carboxamide] fall in the same range of EC50: 1000 to 5000 nM for the first, 1000 to 5000 nM for the second.

`CC(NC(=O)Nc1ccc2ccccc2c1)(C(F)(F)F)C(F)(F)F` [Example 71, 1-Naphthalen-2-yl-3-(2,2,2-trifluoro-1-methyl-1-trifluoromethylethyl)-urea] and `CC(NC(=O)Nc1cccc2ccccc12)(C(F)(F)F)C(F)(F)F` [Example 58, 1-Naphthalen-1-yl-3-(2,2,2-trifluoro-1-methyl-1-trifluoromethylethyl)-urea] fall in the same range of EC50: 1000 to 5000 nM for the first, 1000 to 5000 nM for the second.

`CC(NC(=O)NNS(=O)(=O)c1ccccc1)(C(F)(F)F)C(F)(F)F` [Example 30, N-2-(1,1,1,3,3,3-Hexafluoro-2-methylpropyl)-2-[phenylsulfonyl]hydrazine-1-carboxamide] and `CC(NC(=O)NNS(=O)(=O)c1ccccc1C(F)(F)F)(C(F)(F)F)C(F)(F)F` [Example 24, N-2-(1,1,1,3,3,3-Hexafluoro-2-methylpropyl)-2-[(2-trifluoromethylphenyl)sulfonyl] hydrazine-1-carboxamide] fall in the same range of EC50: 1000 to 5000 nM for the first, 1000 to 5000 nM for the second.

`CC(NC(=O)NNS(=O)(=O)c1cccc2c1OCCO2)(C(F)(F)F)C(F)(F)F` [Example 34, N-2-(1,1,1,3,3,3-Hexafluoro-2-methylpropyl)-2-[5-(2,3-dihydrobenzo[1,4]dioxinyl)sulfonyl]hydrazine-1-carboxamide] and `CC(NC(=O)NNS(=O)(=O)c1cccc(OC(F)F)c1)(C(F)(F)F)C(F)(F)F` [Example 31, N-2-(1,1,1,3,3,3-Hexafluoro-2-methylpropyl)-2-[(3-difluoromethoxyphenyl)sulfonyl] hydrazine-1-carboxamide] fall in the same range of EC50: 1000 to 5000 nM for the first, 1000 to 5000 nM for the second.

`CC(NC(=O)Nc1c(F)cccc1Cl)(C(F)(F)F)C(F)(F)F` [Example 64, 1-(2-Chloro-6-fluorophenyl)-3-(2,2,2-trifluoro-1-methyl-1-trifluoromethylethyl)-urea] and `CC(NC(=O)Nc1c(F)cccc1F)(C(F)(F)F)C(F)(F)F` [Example 62, 1-(2,6-Difluorophenyl)-3-(2,2,2-trifluoro-1-methyl-1-trifluoromethylethyl)-urea] fall in the same range of EC50: 1000 to 5000 nM for the first, 1000 to 5000 nM for the second.

First: CC(NC(=O)N1CCCCC1)(C(F)(F)F)C(F)(F)F [Example 54, 1-Piperidino-1-(2,2,2-trifluoro-1-methyl-1-trifluoromethylethyl)-carboxamide]
Second: CC(NC(=O)Nc1cccc(F)c1)(C(F)(F)F)C(F)(F)F [Example 80, 1-(3-fluorophenyl)-3-(2,2,2-trifluoro-1-methyl-1-trifluoromethylethyl)-urea]
The EC50 of the first is lower: 500 to 1000 nM for the first, 1000 to 5000 nM for the second.

`CC(NC(=O)Nc1ccc(Br)cc1Br)(C(F)(F)F)C(F)(F)F` [Example 93, 1-(2,4-Dibromophenyl)-3-(2,2,2-trifluoro-1-methyl-1-trifluoromethylethyl)-urea] and `Cc1ccccc1NC(=O)NC(C)(C(F)(F)F)C(F)(F)F` [Example 89, 1-(2-Methylphenyl)-3-(2,2,2-trifluoro-1-methyl-1-trifluoromethylethyl)-urea] cannot be ordered by EC50: over 5000 nM for the first, over 5000 nM for the second.

Compared with `CC(NC(=O)Nc1ccc(C(F)(F)F)cc1)(C(F)(F)F)C(F)(F)F` [Example 56, 1-(4-Trifluoromethylphenyl)-3-(2,2,2-trifluoro-1-methyl-1-trifluoromethylethyl)-urea], `CC(NC(=O)Nc1ccccc1C#N)(C(F)(F)F)C(F)(F)F` [Example 82, 1-(2-Cyanophenyl)-3-(2,2,2-trifluoro-1-methyl-1-trifluoromethylethyl)-urea] is higher in EC50: 500 to 1000 nM for the first, 1000 to 5000 nM for the second. The first is the more potent here.
